The results in this text go back to patent publication US20240352066A1, “ANTIMICROBIAL COMPOUNDS AND THE METHOD OF USE” (priority 2021, published 2024).

The subject of the assay is C. albicans. The experiment in a line: Peptoid library agar diffusion (PLAD) screening of library RGL8. In kind it is cell-based, Candida albicans. The conditions noted are these: RPMI-MOPS media. An excerpt:
Antimicrobial peptoids of the present disclosure may have biological activity. Biological activity can be antimicrobial activity against a microbe, e.g., a fungal pathogen, a bacterial pathogen, or a combination thereof. A peptoid library agar diffusion (PLAD) assay may be used to identify peptoids that have antimicrobial activity (Fischer et al., ACS Comb. Sci. 18, 287-291 (2016); Corson et al., ACS Med. Chem. Lett. 7, 1139-1144 (2016); Turkett et al., ACS Comb. Sci. 18, 287-291 (2016)). The PLAD assay uses a PLAD chemical linker. […] Beads containing the PLAD linked peptoids are embedded in an agar medium where the agar medium is inoculated with the microbe of interest. The β-strand peptoid is released by a reducing reagent. The reducing agent cleaves a disulfide within the PLAD linker, allowing the β-strand peptoid to interact with microbes around the bead. If the released peptoid has antimicrobial activity, a zone of inhibited growth will be present. The α-strand peptoid remains attached to the bead during the screening process. […] The chemical cleavage of the α-strand peptoid is be accomplished at a C-terminal methionine of the PLAD linker using cyanogen bromide. […] The PLAD assay may be adapted to screen a peptoid of interest against different types of microbes of interest through slight modifications of the assay parameters. […]
(A growth-free zone around the sample is the usual read-out of agar diffusion tests.)

Turning to Ntri-Ncha-Ncha-Ncha-Ncha, the “PLAD screening result (zone of inhibited fungal growth)” value is recorded as “hit”.
